The source of these data is patent US20260364184A1, “COMPOUND BASED ON OXOISOINDOLINYL-SUBSTITUTED TETRAHYDROPYRIMIDINE-DIONE AND USE THEREOF” (GLUETACS THERAPEUTICS (SHANGHAI) CO., LTD., priority 2023, published 2026).

Assay [1] has as its target ER (Homo sapiens, UniProt P03372). The assay can be described thus: Western blot degradation of ER. It counts as cell-based. Conditions: Table IIA3, ER inhibitor-based. How it is done: (§1) Conventional Western blot assay was performed to evaluate the effects of the compounds of the present disclosure on the expression of target proteins in cells.
(§2) (1) Cell Seeding and Protein Harvesting: The selected cells were processed according to the cell seeding procedure and protein harvesting procedure in Table II-2.
(§3) (2) To the collected supernatant, 5×SDS sample loading buffer was added, followed by denaturation at 95 °C for 5 minutes. The denatured samples were then separated by SDS-PAGE electrophoresis on a polyacrylamide gel. Proteins were transferred to a nitrocellulose membrane (0.45 μm NC membrane), blocked with blocking buffer at room temperature for 1 hour, and subjected to antibody incubation and development procedures according to the antibody manufacturer's instructions (Cell Signaling Technology).
(§4) Half-Maximal Degradation Concentration value (the drug concentration required for degrading proteins by 50%, abbreviated as DC50) reads method: comparing the grayscale values of Western blot bands from drug-treated samples with those from blank DMSO-treated controls, and identifying the drug concentration range at which the grayscale value is half that of the DMSO-treated control bands.
(§5) DC50 values can be calculated using ImageJ software to measure grayscale values of Western blot bands from drug-treated samples. […]
(Immunoblotting shows a protein as a band on a membrane.)

The subject of assay [2] is Human non-small cell lung cancer cell line NCI-H1975. The assay can be described thus: Inhibition of H1975 cell proliferation (CellTiter luminescent viability). In kind it is cell-based. Conditions: Table IC1, BTK inhibitor-based; H1975, 96 hours; read-out: Inhibitory activity (IC50, nM) on tumor cell proliferation, H1975. Summed up: (§6)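 Cells are seeded in 96-well plates, cultured at 37 °C, 5% CO2, and treated next day with 5-fold serial compound dilutions (stock series from 2000 μM; 0.5 μL into 100 μL medium). Viability is read by CellTiter-Meiluncell luminescence after the set exposure, and IC50 is taken from growth-inhibition curves.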

Assay [3] has as its system Human gastric cancer cell line MGC803. The assay can be described thus: Inhibition of MGC803 tumor cell proliferation (CellTiter luminescent viability). In kind it is cell-based. Conditions: Table IC1, BTK inhibitor-based; MGC803, 96 hours; read-out: Inhibitory activity (IC50, nM) on tumor cell proliferation, MGC803. As to the method: (§7) The tumor cells used herein were cultured in a cell culture medium listed in table 3 at 37 °C in an incubator with 5% CO2. Prior to experimentation, all cell lines used were correctly identified by STR profiling, and tested negative for mycoplasma contamination using a mycoplasma detection kit through routine screenings.
(§8) The IC50 values of the compounds of the present disclosure (including the compounds in Table 1, Table 2, and Examples 1-468) were determined using the CellTiter-Meiluncell Luminescent Cell Viability Assay Kit from Dalian Meilun Biotech Co., Ltd. The detailed procedure is as follows: Tumor cells were seeded in 96-well cell culture plates at the densities specified in Table 4. On the following day, the test compounds of the present disclosure were subjected to serial dilution. The dilution can be performed according to one of the following two methods: • (1) The first dilution method: The test compounds of the present disclosure (including the compounds in Table 1, Table 2, and Examples 1-468) were subjected to 5-fold serial dilutions starting from a highest concentration of 2000 μM, resulting in a total of 9 concentrations from high to low (2000, 400, 80, 16, 3.2, 0.64, 0.128, 0.0256, 0.00512 μM). Subsequently, 0.5 μL of the test compound dilution was transferred into the 96-well plate containing the cells, with each well containing 100 μL of cell culture medium. […] Into the 96-well plate, the diluted test compounds and corresponding detection reagents were added, resulting in final test compound concentrations of 500 nM and 10 nM, respectively. The experimental procedure is described below using the diluted 2 μM test compound as an example.
(§9) 0.5 μL of the aforementioned diluted compound of the present disclosure (including the compounds in Table 1, Table 2, and Examples 1-468) was added to the seeded cells in 100 μL of medium, yielding a final test compound concentration of 10 nM. After the cells were treated with the compounds of the present disclosure for a specified period, the cell viability assay reagent was added to the culture medium according to the kit's instructions to determine cell viability. […] All controls were treated using the same procedure as the compounds of the present disclosure. The growth inhibition curves for the compounds of the present disclosure were plotted using Prism GraphPad software, and the IC50 values were calculated therefrom.

Assay [4] relates to Human Multiple myeloma cell line (MM.1S). The assay can be described thus: Inhibition of MM.1S cell proliferation (CellTiter luminescent viability). Conditions: Table IC1, BTK inhibitor-based, 96 hours, read-out: Inhibitory activity (IC50, nM) on tumor cell proliferation, MM.1S. It counts as cell-based. Summed up: as §6
The test system of assay [5] is JEKO-1. Nature of the assay: Inhibition of JEKO-1 cell proliferation (CellTiter luminescent viability). In kind it is cell-based, human. Conditions: Table IC1, BTK inhibitor-based; JEKO-1, 96 hours; read-out: Inhibitory activity (IC50, nM) on tumor cell proliferation, JEKO-1. As to the method:
as §7, §8, §9

For assay [6], the system named is Human T lymphocytic leukemia cell line (Jurkat). Nature of the assay: Inhibition of Jurkat cell proliferation (CellTiter luminescent viability). It counts as cell-based. Conditions: Table IC1, BTK inhibitor-based, 96 hours, read-out: Inhibitory activity (IC50, nM) on tumor cell proliferation, Jurkat.
Assay [7] concerns the target T1, BTK (Homo sapiens, UniProt Q06187).
T1 construct: expression of target proteins in cells; endogenous in cells
Nature of the assay: Western blot degradation of BTK. Conditions: Table IIA4, BTK inhibitor-based. In kind it is cell-based. As to the method:
as §1, §2, §3, §4
DC50 values can be calculated using ImageJ software to measure grayscale values of Western blot bands from drug-treated samples. The concentration-response curve is fitted to estimate the drug concentration corresponding to half the grayscale value.
Target protein remaining (%) refers to the percentage of target protein remaining in cells after treatment with protein degrader compounds.
Calculation method for target protein remaining (%): Use ImageJ software to measure grayscale values of Western blot bands from drug (protein degrader)-treated samples. The grayscale value of drug-treated bands is divided by that of internal control protein bands, and the resulting quotient is normalized to obtain the relative percentage of remaining target protein after protein degrader treatment.
Target protein degradation rate (%)=1−target protein remaining (%).

The target of assay [8] is CDK2 (Homo sapiens, UniProt P24941). The assay can be described thus: Western blot degradation of CDK2. It counts as cell-based. Conditions: hPBMC Cell; 24 hours. How it is done:
as §1, §2, §3, §4, §5

T1 sequence (Q06187 whole entry): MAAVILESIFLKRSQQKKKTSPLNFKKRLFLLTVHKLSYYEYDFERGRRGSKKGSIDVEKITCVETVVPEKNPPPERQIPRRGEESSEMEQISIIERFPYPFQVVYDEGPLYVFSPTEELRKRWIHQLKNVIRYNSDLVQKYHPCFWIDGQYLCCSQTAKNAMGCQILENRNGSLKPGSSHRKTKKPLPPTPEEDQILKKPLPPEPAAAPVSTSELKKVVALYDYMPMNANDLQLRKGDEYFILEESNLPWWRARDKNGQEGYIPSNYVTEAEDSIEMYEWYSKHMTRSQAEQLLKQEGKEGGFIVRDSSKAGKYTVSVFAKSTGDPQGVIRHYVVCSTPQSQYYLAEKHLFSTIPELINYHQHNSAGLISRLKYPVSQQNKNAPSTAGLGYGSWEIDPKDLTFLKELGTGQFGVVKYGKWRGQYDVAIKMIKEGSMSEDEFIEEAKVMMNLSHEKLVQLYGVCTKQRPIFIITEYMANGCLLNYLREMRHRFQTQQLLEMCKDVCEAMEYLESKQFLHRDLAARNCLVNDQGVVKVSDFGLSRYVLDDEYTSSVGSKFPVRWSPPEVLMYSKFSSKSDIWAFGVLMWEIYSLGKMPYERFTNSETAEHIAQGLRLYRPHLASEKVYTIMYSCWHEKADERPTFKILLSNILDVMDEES
Sequence of ER (P03372 whole entry): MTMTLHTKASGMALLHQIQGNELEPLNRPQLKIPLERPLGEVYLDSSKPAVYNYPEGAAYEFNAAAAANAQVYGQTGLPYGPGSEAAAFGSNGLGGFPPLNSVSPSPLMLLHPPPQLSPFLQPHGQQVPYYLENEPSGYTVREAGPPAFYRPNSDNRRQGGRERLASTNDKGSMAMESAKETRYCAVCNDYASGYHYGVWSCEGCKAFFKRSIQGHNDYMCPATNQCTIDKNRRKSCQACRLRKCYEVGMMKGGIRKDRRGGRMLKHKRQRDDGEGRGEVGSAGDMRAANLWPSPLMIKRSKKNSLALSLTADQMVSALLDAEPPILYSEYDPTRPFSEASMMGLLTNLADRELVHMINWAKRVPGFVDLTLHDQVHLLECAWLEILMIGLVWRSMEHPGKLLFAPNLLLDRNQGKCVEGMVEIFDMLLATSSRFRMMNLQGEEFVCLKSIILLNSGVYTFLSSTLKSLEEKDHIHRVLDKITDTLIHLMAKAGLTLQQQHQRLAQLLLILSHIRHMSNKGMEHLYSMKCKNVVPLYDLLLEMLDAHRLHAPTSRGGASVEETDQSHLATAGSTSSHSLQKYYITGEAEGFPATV
Sequence of ER (Q96SW2 whole entry partner): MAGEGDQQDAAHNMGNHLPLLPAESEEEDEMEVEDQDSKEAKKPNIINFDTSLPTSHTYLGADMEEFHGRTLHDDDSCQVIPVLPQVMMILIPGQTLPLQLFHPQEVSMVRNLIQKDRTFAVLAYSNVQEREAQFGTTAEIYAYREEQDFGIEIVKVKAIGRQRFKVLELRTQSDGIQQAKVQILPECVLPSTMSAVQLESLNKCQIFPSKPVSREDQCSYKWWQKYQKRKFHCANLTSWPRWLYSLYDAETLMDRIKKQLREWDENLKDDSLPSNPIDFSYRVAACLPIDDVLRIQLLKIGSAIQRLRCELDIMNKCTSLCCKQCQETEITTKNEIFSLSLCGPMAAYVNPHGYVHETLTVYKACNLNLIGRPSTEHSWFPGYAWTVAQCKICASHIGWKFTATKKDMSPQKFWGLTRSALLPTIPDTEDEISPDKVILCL

In the case of `O=C1CCN(N2C(=O)c3ccc(CN4CCN(c5ccc([C@@H]6c7ccc(O)cc7OC[C@@H]6c6ccccc6)cc5)CC4)cc3C2=O)C(=O)N1` [GT-04778, 2-(2,4-dioxotetrahydropyrimidin-1(2H)-yl)-5-((4-(4-((3S,4R)-7-hydroxy-3-phenylchroman-4-yl)phenyl)piperazin-1-yl)methyl)isoindoline-1,3-dione], in assay [1], the “Degradation of substrate protein ER (substrate protein remaining %)” value is reported as “A (0%≤substrate protein remaining %≤80%)”.
For the compound `Nc1ncnc2c1c(-c1ccc(Oc3ccccc3)cc1)nn2C1CCN(Cc2ccc3c(c2)CN(N2CCC(=O)NC2=O)C3=O)CC1` [GT-05075, 1-(5-((4-(4-amino-3-(4-phenoxyphenyl)-1H-pyrazolo[3,4-d]pyrimidin-1-yl)piperidin-1-yl)methyl)-1-oxoisoindolin-2-yl)dihydropyrimidine-2,4 (1H,3H)-dione], the IC50 lay within 50 to 100 nM in assay [2]; 50 to 100 nM in assay [3]; 10 to 50 nM in assay [4]; 50 to 100 nM in assay [5]; 50 to 100 nM in assay [6]. In addition, in assay [7], the “Degradation of substrate protein BTK (substrate protein remaining %)” value is recorded as “A (0%≤substrate protein remaining %≤80%)”.
On to `Cc1cc(S(=O)(=O)N2CCN(Cc3ccc4c(c3)C(=O)N(N3CCC(=O)NC3=O)C4=O)CC2)ccc1Nc1ncc(Br)c(Nc2cccc(F)c2C(N)=O)n1` [GT-06829, 2-((5-bromo-2-((4-((4-((2-(2,4-dioxotetrahydropyrimidin-1(2H)-yl)-1,3-dioxoisoindolin-5-yl)methyl)piperazin-1-yl)sulfonyl)-2-methylphenyl)amino)pyrimidin-4-yl)amino)-6-fluorobenzamide], for which the “Degradation of substrate protein CDK2 (substrate protein remaining %)” value in assay [8] was “A (0%≤substrate protein remaining %≤80%)”.
